Laboratory results reported in US12030905B2, “Steviol glycoside compounds, compositions for oral ingestion or use, and method for enhancing steviol glycoside solubility” (Cargill, Incorporated, priority 2014, dated 2024).

What was measured:
[1] = Instantaneous solubility in deionized water at room temperature; type: physicochemical; details: for instantaneous solubility: vigorously mixed with deionized water for 10 minutes at room temperature, clear solution without precipitates
Text: (§1) The composition can optionally be expressed in terms of the concentration of one or more steviol glycoside(s). Beneficially, it has been founds that compound(s) 1, 2, 3, and/or 4, can improve solubility of steviol glycosides in an aqueous solution, and therefore compositions can be prepared having a greater concentration of steviol glycosides in solution. As used herein “instantaneous solubility” refers to the solubility of a steviol glycoside, or mixture of steviol glycosides, that are vigorously mixed with deionized water at room temperature (25° C.). As used herein “equilibrium solubility” refers to the solubility of a steviol glycoside, or mixture of steviol glycosides, that are vigorously mixed with deionized water at 80° C. for 15 minutes, cooled to room temperature (25° C.), and then observed up to 4 days. Clear solutions without precipitates are considered soluble. Unless indicated otherwise herein, the term “solubility” refers to “equilibrium solubility.”
(§2) Instantaneous solubility is determined by mixing steviol glycoisde with deionized water vigorously for 10 minutes at room temperature. Equilibrium solubility is determined by heating deionized water with steviol glycoside at 80° C. for 15 minutes and cooling down to room temperature for observation up to 4 days. Clear solutions without precipitates are considered soluble.

[2] = Equilibrium solubility (heated at 80° C. for 15 minutes, cooled to room temperature, observed up to 4 days); type: physicochemical; details: for equilibrium solubility: deionized water, 80° C. for 15 minutes, cooled to room temperature, observed up to 4 days
Text: as §1, §2

[3] = taste, versus sucrose/sugar; cited from earlier work

instantaneous solubility [1] | instantaneous solubility ([1]; listed as rebaudioside D) | equilibrium solubility at 0.08% ([2]; RebD 0.08% in deionized water) | equilibrium solubility [2] [%] | instantaneous solubility at 0.10% ([1]; RebM 0.10% in deionized water) | instantaneous solubility at 0.13% ([1]; RebM 0.13% in deionized water) | instantaneous solubility ([1]; listed as rebaudioside M) | equilibrium solubility at 0.10% ([2]; RebM 0.10% in deionized water) | equilibrium solubility at 0.13% ([2]; RebM 0.13% in deionized water) | equilibrium solubility at 0.20% ([2]; RebM 0.20% in deionized water) | equilibrium solubility ([2]; listed as rebM) | equilibrium solubility ([2]; listed as rebaudioside M) | Structure (SMILES) | times sweeter than sucrose [3]
< 0.08% | less than 0.08% | soluble | 0.08 |  |  |  |  |  |  |  |  | C=C1C[C@@]23CC[C@H]4[C@@](C)(CCC[C@@]4(C)C(=O)O[C@@H]4O[C@H](CO)[C@@H](O)[C@H](O)[C@H]4O[C@@H]4O[C@H](CO)[C@@H](O)[C@H](O)[C@H]4O)[C@@H]2CC[C@]1(O[C@@H]1O[C@H](CO)[C@@H](O)[C@H](O[C@@H]2O[C@H](CO)[C@@H](O)[C@H](O)[C@H]2O)[C@H]1O[C@@H]1O[C@H](CO)[C@@H](O)[C@H](O)[C@H]1O)C3 [RebD, rebaudioside D] | 200-220 times
at least 0.13% |  |  |  | soluble | soluble | about 0.13% | soluble | soluble | soluble | at least 0.2% | about 0.2% | C=C1C[C@@]23CC[C@H]4[C@@](C)(CCC[C@@]4(C)C(=O)O[C@@H]4O[C@H](CO)[C@@H](O)[C@H](O[C@@H]5O[C@H](CO)[C@@H](O)[C@H](O)[C@H]5O)[C@H]4O[C@@H]4O[C@H](CO)[C@@H](O)[C@H](O)[C@H]4O)[C@@H]2CC[C@]1(O[C@@H]1O[C@H](CO)[C@@H](O)[C@H](O[C@@H]2O[C@H](CO)[C@@H](O)[C@H](O)[C@H]2O)[C@H]1O[C@@H]1O[C@H](CO)[C@@H](O)[C@H](O)[C@H]1O)C3 [RebM, rebaudioside M] | 
